Test results: patent US20020128264A1, “Methods for treatment of conditions affected by activity of multidrug transporters” (priority 2000, published 2002)
Where two headings read alike, the source gives them in different places.

What was measured:
[1] = Intracerebroventricular (icv) efflux from brain; assay type: in vivo, mice; settings: icv administration
Procedure: (§1) Male Swiss-Webster CFW mice were supplied by Charles River Laboratories (Hollister, Calif.) and all experiments were conducted according to the NIH Guide on Care and Use of Laboratory Animals. Mice were 2-3 months old at the time of use.
(§2) These experiments were conducted according to the method of Banks et al. (1997) with minor modifications. The skull was exposed and, with a guarded 25 g needle, a hole was made through the skull at 1 mm anterior posterior (AP) and 1 mm lateral left (LL), relative to Bregma, and 3.5 mm dorsal ventral (DV), with respect to the skull. A guarded 1 μL Hamilton syringe (25 g) was used to inject 1 μL of PBS containing ^14C-AIT-082 (˜4.5×10^4 dpm/μL), ^3H-sucrose (˜3×10^4 dpm/μL), or ^3H-quinidine (˜3×10^4 dpm/μL) icv into mice. After injection and upon withdrawing the needle, there was often back flux of fluid that was collected. At various times after injection the amount of radioactivity remaining in the brain was determined. The amount of radioactivity in the back flux and injection mixture was also determined. Radioactivity in brain was corrected for the back flux and the log of this corrected dpm was plotted against time. The t½, was the inverse of the slope of the line multiplied by 0.301 (Banks et al., 1997).
(§3) All data are presented as mean ±S.E. For comparisons of means from 2 groups an unpaired Student's t-test was used. For comparisons of means from 3 groups, ANOVA was performed coupled with Scheffe's post-hoc analysis.

[2] = Intraparenchymal (ipc) efflux from brain; assay type: in vivo, mice; settings: ipc administration
Procedure: as §1
These experiments were conducted according the method of Banks et al. (1994) with minor modifications. Mice were anesthetized and then immobilized in a stereotaxic apparatus with a mouse adaptor coupled to a microinjection unit (Kopf, Tujunga, Calif.). A small hole was made in the skull with a Dremel drill (model 770; 2.4 mm drill bit, model 107) at −1 mm AP and 1 mm LL relative to Bregma. Using a guarded 0.5 μL Hamilton syringe (25 g), 0.1 μL PBS containing ^14C-AIT-082 ([…]) or ^3H-sucrose (˜5×10^4 dpm/μL) was injected ipc at […] with respect to the skull. Back flux of injection fluid was collected and at various times after injection brains were removed. The amount of radioactivity in brain, back flux and injection mixture was measured. The amount of radioactivity in the brain was corrected for the back flux and the log of this corrected dpm was plotted against time. The t½ was calculated as described above.
as §3

P-gp = molecular target: T1, P-gp (Mus musculus, UniProt P21447); assay: Effect of AIT-082 on efflux of 3H-quinidine (P-gp substrate) from brain after icv administration; assay type: in vivo, mice; settings: quinidine is a P-gp substrate
T1 construct: from tissue; host or cells: brain of living mice (in vivo efflux after icv or ipc injection)
Procedure: as §2, §3

[3] = Taylor et al., 2000, cited from earlier work
[4] = Taylor et al., 2000, cited from earlier work; remark: listed apart in the source
MRPs [5] = assay: Effect of MRP inhibitors on efflux of 14C-AIT-082 from brain after icv administration; assay type: in vivo, mice; settings: icv co-administration with 14C-AIT-082
Procedure: To examine the role of P-gp and MRP, various substrates/inhibitors were co-administered with ^14C-AIT-082. […] In all experiments the control group of animals was given ^14C-AIT-082 in PBS. Additionally, in experiments in which probenecid or verapamil were used, a second control group was given ^14C-AIT-082 in PBS containing 370 mM NaOH and 370 mM HCl, pH 7.4, or 14C-AIT-082 in PBS with 4.2% ethanol, pH 7.4, respectively.
All data are presented as mean ±S.E. For comparisons of means from 2 groups an unpaired Student's t-test was used. […]

MRPs [6] = assay: Effect of MRP inhibitors on efflux of 14C-AIT-082 from brain after ipc administration; assay type: in vivo, mice; settings: ipc co-administration with 14C-AIT-082
Procedure: Mice were anesthetized and then immobilized in a stereotaxic apparatus with a mouse adaptor coupled to a microinjection unit (Kopf, Tujunga, Calif.). […] Back flux of injection fluid was collected and at various times after injection brains were removed. The amount of radioactivity in brain, back flux and injection mixture was measured. The amount of radioactivity in the brain was corrected for the back flux and the log of this corrected dpm was plotted against time. The t½ was calculated as described above.
As above, all experiments included a control group in which ^14C-AIT-082 was administered in PBS.

[7] = passively transported compound, t½ significantly higher

T1 sequence (P21447 whole entry): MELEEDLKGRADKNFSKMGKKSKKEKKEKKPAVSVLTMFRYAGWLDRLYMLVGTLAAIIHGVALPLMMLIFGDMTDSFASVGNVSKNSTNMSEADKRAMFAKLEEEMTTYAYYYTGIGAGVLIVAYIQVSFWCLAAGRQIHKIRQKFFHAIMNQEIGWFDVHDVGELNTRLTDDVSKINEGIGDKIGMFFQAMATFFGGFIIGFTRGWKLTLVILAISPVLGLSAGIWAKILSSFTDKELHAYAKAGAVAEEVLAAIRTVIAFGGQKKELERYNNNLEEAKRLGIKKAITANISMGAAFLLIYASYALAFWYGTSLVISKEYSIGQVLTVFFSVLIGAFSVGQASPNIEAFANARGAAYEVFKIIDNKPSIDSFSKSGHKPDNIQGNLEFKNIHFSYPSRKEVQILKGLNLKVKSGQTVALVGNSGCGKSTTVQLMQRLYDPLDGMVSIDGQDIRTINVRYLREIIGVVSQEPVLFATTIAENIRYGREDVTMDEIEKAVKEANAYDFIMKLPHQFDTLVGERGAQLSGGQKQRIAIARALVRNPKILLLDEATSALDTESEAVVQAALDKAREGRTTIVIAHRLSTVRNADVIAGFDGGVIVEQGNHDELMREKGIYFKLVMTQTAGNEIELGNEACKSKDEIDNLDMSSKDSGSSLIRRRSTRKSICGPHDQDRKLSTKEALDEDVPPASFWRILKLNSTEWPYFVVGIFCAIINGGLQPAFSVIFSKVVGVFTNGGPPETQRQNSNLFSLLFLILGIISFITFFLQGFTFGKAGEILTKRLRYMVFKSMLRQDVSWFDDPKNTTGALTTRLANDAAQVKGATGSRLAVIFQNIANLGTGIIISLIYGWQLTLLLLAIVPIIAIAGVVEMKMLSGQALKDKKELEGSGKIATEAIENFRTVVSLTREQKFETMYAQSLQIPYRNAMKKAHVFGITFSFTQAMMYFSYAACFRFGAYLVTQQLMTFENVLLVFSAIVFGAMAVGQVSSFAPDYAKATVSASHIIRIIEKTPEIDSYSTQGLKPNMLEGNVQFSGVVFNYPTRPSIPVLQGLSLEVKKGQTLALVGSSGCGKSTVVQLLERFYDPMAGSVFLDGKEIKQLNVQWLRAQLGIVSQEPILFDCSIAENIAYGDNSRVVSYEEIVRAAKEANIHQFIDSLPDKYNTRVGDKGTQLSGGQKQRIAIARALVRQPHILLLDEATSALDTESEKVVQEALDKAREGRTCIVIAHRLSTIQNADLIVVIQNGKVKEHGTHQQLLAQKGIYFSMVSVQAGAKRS

Q: For `O=C(CCn1cnc2c(=O)[nH]cnc21)Nc1ccc(C(=O)O)cc1` [AIT-082, N-4-carboxyphenyl-3-(6-oxohydropurin-9-yl)propanamide], which “effect of excess unlabeled AIT-082 on efflux of 14C-AIT-082 from brain (saturability)” value [1] is on record?
A: Its value is “inhibited”.

Q: What about the “t½ of transport out of brain” value ([1]; mice, mean ±S.E.) of the same compound?
A: Its value is 20 ± 1.0 min.

Q: And the “effect of excess unlabeled AIT-082 on efflux of 14C-AIT-082 from brain (saturability)” value [2]?
A: The value was “inhibited”.

Q: And the “t½ of transport out of brain” value ([2]; mice, mean ±S.E.)?
A: The value was 35.0 ± 1.9 min.

Q: What about the “effect on efflux of 3H-quinidine from brain” value (P-gp) of the same compound?
A: Its value is “inhibited”.

Q: What about the “effect of excess unlabeled AIT-082 on efflux of 14C-AIT-082 from brain” value [3] of the same compound?
A: The value was “inhibited”.

Q: What about the “t½ of transport out of brain” value ([3]; after intracerebroventricular administration) of the same compound?
A: Its value is “approximately 20 minutes”.

Q: And the “mechanism of transport into brain” value [4]?
A: Its value is “non-saturable mechanism”.

Q: And the “amount detectable in cortical extracellular fluid” value ([4]; capillary depletion and microdialysis)?
A: The value was “low micromolar quantities”.

Q: Which “transport out of brain compared with 14C-AIT-082” value [1, 7] does the source give for `OC[C@H]1O[C@@](CO)(O[C@H]2O[C@H](CO)[C@@H](O)[C@H](O)[C@H]2O)[C@@H](O)[C@@H]1O` [^3H-sucrose, sucrose, reference compound] here?
A: The value was “significantly slower”.

Q: What about the “transport out of brain compared with 14C-AIT-082” value [2, 7] of the same compound?
A: Its value is “significantly slower”.

Q: For `CCCN(CCC)S(=O)(=O)c1ccc(C(=O)O)cc1` [probenecid], which “effect on efflux of 14C-AIT-082 from brain” value (MRPs [5]) is on record?
A: The value was “significantly inhibited”.

Q: And the “effect on efflux of 14C-AIT-082 from brain” value (MRPs [6])?
A: Its value is “significantly inhibited”.
